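Compound exposure: 48 hours, 5 concentrations, 96-well plates. Abbreviation: GI50, concentration required for 50% inhibition of growth.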 Active and inactive are the calls of the source. Rule as the data show it: active = GI50 up to about 1.1 µM and inactive = higher. Residues, ends and D or L forms follow the SMILES beside them. *: point of attachment. Cbz = O=C(OCc1ccccc1)*; Boc = CC(C)(C)OC(=O)*; OSu = O=C1CCC(=O)N1O*; Bn = c1ccc(C*)cc1
Experiments:
Assay in all cases: NCI anticancer screen, dose series, 48 h
[1] = test system: HT-29
[2] = test system: SK-MEL-2
[3] = test system: UACC-62
[4] = test system: A549
[5] = test system: K562
[6] = test system: SF-539
[7] = test system: CAKI-1
[8] = test system: RXF 393
[9] = test system: SN12C
[10] = test system: SNB-19
[11] = test system: SK-MEL-5
[12] = test system: Malme-3M
[13] = test system: MDA-MB-435
[14] = test system: PC-3
[15] = test system: EKVX
[16] = test system: HOP-92
[17] = test system: T47D
[18] = test system: NCI/ADR-RES
[19] = test system: Hs-578T
[20] = test system: HL-60

Measured: GI50

COc1cccc2c(Nc3ccc(S(=O)(=O)N=C(N)N)cc3)c3ccc([N+](=O)[O-])cc3nc12
inactive: [1] 32.8 µM | [2] 14.3 µM | [3] 5.98 µM | [4] 20.2 µM | [5] 6 µM | [6] 4.85 µM | [7] 5.57 µM | [8] 40.4 µM | [9] 30 µM | [10] 12.6 µM | [11] 11.6 µM | [12] 10.7 µM | [13] 23.6 µM | [14] 18.7 µM | [15] 26.2 µM | [16] 12.3 µM | [17] 1.35 µM | [18] > 100 µM

CC1(C)CCc2c(cc3c(c2O)CCC(C)(C)O3)O1
inactive: [1] 35.8 µM | [2] 25.1 µM | [19] > 100 µM | [3] > 100 µM | [4] > 100 µM | [5] 48.8 µM | [6] > 100 µM | [7] > 100 µM | [9] > 100 µM | [10] > 100 µM | [11] 62.8 µM | [12] 12.3 µM | [14] 49.3 µM | [15] > 100 µM | [17] 41.8 µM | [20] 27.3 µM | [18] > 100 µM

c1cc(-c2ccc(-c3ccsc3)s2)cs1
inactive: [1] 39.5 µM | [19] 40.5 µM | [3] 54.2 µM | [4] 22.4 µM | [5] > 100 µM | [6] 36.4 µM | [7] 45.4 µM | [8] 73.1 µM | [9] > 100 µM | [11] > 100 µM | [13] > 100 µM | [15] 85.5 µM | [16] > 100 µM | [17] > 100 µM | [20] 19.2 µM | [18] 30.4 µM

N#CC1C(=O)Nc2sc(C(=O)c3ccc(Br)cc3)c(N)c2C12CCCCC2 (configuration not stated)
inactive: [1] 33.4 µM | [2] 14.2 µM | [3] 18.3 µM | [4] 18.1 µM | [5] 23.2 µM | [6] 17.2 µM | [7] 27.9 µM | [8] 7.96 µM | [9] 27.9 µM | [10] 37.9 µM | [11] 14.6 µM | [12] 26.1 µM | [13] 18.9 µM | [14] 10.4 µM | [15] 17.7 µM | [17] 12.3 µM | [18] 24.9 µM

Cc1ccc(S(=O)(=O)NC(=O)NC(Cc2ccccc2)C(=O)O)cc1 (configuration not stated)
inactive: [1] > 100 µM | [2] > 100 µM | [19] > 100 µM | [3] > 100 µM | [4] > 100 µM | [5] > 100 µM | [6] > 100 µM | [8] > 100 µM | [9] > 100 µM | [10] > 100 µM | [11] > 100 µM | [12] > 100 µM | [14] > 100 µM | [16] > 100 µM | [17] > 100 µM | [20] > 100 µM | [18] > 100 µM

CC1=CC(=O)/C(=C/NC(=S)Nc2ccc(S(N)(=O)=O)cc2)C(=O)O1
inactive: [1] > 100 µM | [2] > 100 µM | [3] > 100 µM | [4] > 100 µM | [6] > 100 µM | [7] > 100 µM | [8] 83.6 µM | [9] > 100 µM | [10] > 100 µM | [11] > 100 µM | [13] > 100 µM | [15] > 100 µM | [16] > 100 µM | [17] > 100 µM | [20] > 100 µM | [18] > 100 µM

Cc1csc(NNC(N)=O)n1
inactive: [1] > 100 µM | [2] > 100 µM | [19] > 100 µM | [3] > 100 µM | [4] > 100 µM | [6] > 100 µM | [7] > 100 µM | [8] > 100 µM | [9] > 100 µM | [10] > 100 µM | [11] > 100 µM | [13] > 100 µM | [14] > 100 µM | [15] > 100 µM | [16] > 100 µM | [20] > 100 µM | [18] > 100 µM

C[C@H](CSC(=O)c1ccccc1)C(=O)N1c2ccccc2C[C@H]1C(=O)O
inactive: [1] 47.2 µM | [19] > 100 µM | [3] > 100 µM | [4] > 100 µM | [5] 17.5 µM | [6] > 100 µM | [7] > 100 µM | [9] > 100 µM | [10] > 100 µM | [11] 67.8 µM | [14] > 100 µM | [15] > 100 µM | [17] > 100 µM | [20] 33.7 µM | [18] 50.6 µM

CC(C)(C)OC(=O)NC(Cc1ccc(OCc2ccccc2)cc1)C(=O)NC(CCCCNC(=O)OCc1ccccc1)C(=O)NC(CCCCNC(=O)OCc1ccccc1)C(=O)ON1C(=O)CCC1=O (configuration not stated) (Boc-Tyr(Bn)-Lys(Cbz)-Lys(Cbz)-OSu; configuration not given here)
inactive: [1] 41.1 µM | [2] 38.4 µM | [19] 16.4 µM | [3] 15.7 µM | [4] > 100 µM | [7] 64.4 µM | [8] 39.4 µM | [9] > 10 µM | [10] 16.6 µM | [11] 26 µM | [12] 54.3 µM | [13] 33.1 µM | [15] > 100 µM | [16] 51.2 µM | [17] 21 µM | [18] > 100 µM

Cc1ccc(-c2c(C#N)c(-c3ccc(Cl)cc3)c(C#N)c(=O)n2NS(=O)(=O)c2ccc(C)cc2)cc1
inactive: [1] 37.2 µM | [2] 14 µM | [3] 18 µM | [4] 26.4 µM | [5] 33.9 µM | [6] 18.7 µM | [7] 34.1 µM | [8] 21 µM | [9] 39.4 µM | [10] 36.3 µM | [11] 23.1 µM | [12] 20.8 µM | [13] 30.6 µM | [14] 17.4 µM | [15] 47.6 µM | [16] 19.5 µM | [18] 18.3 µM

N#Cc1c(N2CCOCC2)ncn(-c2ccccc2)c1=O
inactive: [2] > 100 µM | [3] > 100 µM | [4] > 100 µM | [5] > 100 µM | [6] > 100 µM | [7] > 100 µM | [9] > 100 µM | [10] > 100 µM | [11] > 100 µM | [13] > 100 µM | [14] > 100 µM | [15] > 100 µM | [16] > 100 µM | [17] > 100 µM | [20] 3.08 µM | [18] > 100 µM

C/C(CC(=O)Nc1ccc(Cl)c(Cl)c1)=N/NC(=O)C[n+]1ccccc1
inactive: [1] > 100 µM | [2] > 100 µM | [3] > 100 µM | [4] > 100 µM | [5] 45.8 µM | [6] > 100 µM | [7] > 100 µM | [8] > 100 µM | [9] > 100 µM | [10] > 100 µM | [11] > 100 µM | [12] > 100 µM | [15] > 100 µM | [16] > 100 µM | [20] 44.4 µM

C[C@]12CC[C@H](O)CC1=CC[C@@H]1[C@@H]2CC[C@]2(C)/C(=N/OCCN3CCCC3)CC[C@@H]12
inactive: [1] 2.7 µM | [2] 21 µM | [19] 22.9 µM | [3] 15.5 µM | [5] 4.36 µM | [6] 14.6 µM | [7] 20.9 µM | [8] 15.1 µM | [9] 29 µM | [10] 23.4 µM | [11] 14.6 µM | [12] 14.1 µM | [13] 15.8 µM | [14] 17.8 µM | [15] 10.8 µM | [20] 7.74 µM | [18] 18.2 µM

NN/C(=N\S(=O)(=O)c1cc(S(=O)(=O)c2ccccc2)cs1)Nc1ccc(Cl)cc1
inactive: [1] 36.1 µM | [2] 16.7 µM | [3] 17.5 µM | [4] 27.2 µM | [5] 18.7 µM | [6] 42.7 µM | [7] 34.1 µM | [8] 14.9 µM | [9] 28.4 µM | [10] 42.1 µM | [11] 16.9 µM | [14] 23.3 µM | [15] 13.6 µM | [16] 33.3 µM | [17] 13.8 µM | [20] 4.58 µM | [18] 29.6 µM

C[N+](C)(C)CC(=O)N/N=C(/CC(=O)CC(C1=C(O)c2ccccc2OC1)c1ccccc1)C(=O)Nc1cccc(Cl)c1 (configuration not stated)
inactive: [1] > 100 µM | [2] > 100 µM | [3] > 100 µM | [4] > 100 µM | [5] > 100 µM | [6] > 100 µM | [7] > 100 µM | [8] > 100 µM | [9] > 100 µM | [11] > 100 µM | [14] > 100 µM | [15] > 100 µM | [16] > 100 µM | [17] > 100 µM | [20] > 100 µM | [18] > 100 µM

CCN(CC)c1ccc(/N=N/c2ccc([N+](=O)[O-])cc2OC(=O)/C=C/c2ccccc2)c(OC(=O)/C=C/c2ccccc2)c1
inactive: [1] > 100 µM | [2] > 95.3 µM | [3] 8.11 µM | [4] 8.2 µM | [5] > 68.9 µM | [6] 2.89 µM | [7] 84.1 µM | [8] 42.9 µM | [9] 20.6 µM | [10] > 24.2 µM | [11] 12.2 µM | [12] 6.44 µM | [15] 5.58 µM | [16] > 100 µM | [20] 2.11 µM

Source: ChEMBL document CHEMBL1201862, “PubChem BioAssay data set” (2004)
